Source: patent US6737383B1, “Herbicidal oxadiazolidines” (priority 1999, dated 2004)

Experiments:
soybean = test: Test B pre/postemergence soybean; format: in vivo, Glycine max
In short: (§1)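 Herbicidal effect was estimated by eye on a ten-point control scale after plants spent twelve to sixteen days in a greenhouse following soil or foliar treatment. Foliar sprays targeted plants at one to four leaves; all doses were formulated in a non-phytotoxic solvent with surfactant.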

cocklebur = test: Test B pre/postemergence cocklebur; format: in vivo, Xanthium strumarium
In short: as §1

morningglory = test: Test B pre/postemergence morningglory; format: in vivo, Ipomoea hederacea
In short: as §1

rice = test: Test B flood test rice; format: in vivo, Oryza sativa
In short: (§2)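 Plants were grown to the 2-leaf stage before treatment with test chemical, then held in a greenhouse for twelve to sixteen days. Injury was visually rated against untreated controls on a 0–10 scale, where 0 is no effect and 10 is complete control.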

rape = test: Test B pre/postemergence rape; format: in vivo, Brassica napus
In short: as §1

sugar beet = test: Test B pre/postemergence sugar beet; format: in vivo, Beta vulgaris
In short: as §1

bamyardgrass = test: Test B flood test barnyardgrass; format: in vivo, Echinochloa crus-galli
In short: as §2

duck salad = test: Test B flood test duck salad; format: in vivo, Heteranthera limosa
In short: as §2

crabgrass = test: Test B pre/postemergence crabgrass; format: in vivo, Digitaria sanguinalis
In short: as §1

surinam grass = test: Test B pre/postemergence surinam grass; format: in vivo, Brachiaria decumbens
In short: as §1

wild oat = test: Test B pre/postemergence wild oat; format: in vivo, Avena fatua
In short: as §1

pigweed = test: Test B pre/postemergence pigweed; format: in vivo, Amaranthus retroflexus
In short: as §1

smallflower flatsedge = test: Test B flood test smallflower flatsedge; format: in vivo, Cyperus difformis
In short: as §2

bedstraw = test: Test B pre/postemergence bedstraw; format: in vivo, Galium aparine
In short: as §1

velvetleaf = test: Test B pre/postemergence velvetleaf; format: in vivo, Abutilon theophrasti
In short: as §1

corn = test: Test B pre/postemergence corn; format: in vivo, Zea mays
In short: as §1

[1] = Postemergence, Rate 62 g/ha, scale 0 to 10, 0 is no effect, 10 is complete control
[2] = Postemergence, Rate 250 g/ha, scale 0 to 10, 0 no effect, 10 complete control
[3] = Preemergence, Rate 62 g/ha, scale 0 to 10, 0 is no effect, 10 is complete control
[4] = Preemergence, Rate 125 g/ha, scale 0 to 10 (0 no effect, 10 complete control)
[5] = Preemergence, Rate 250 g/ha, scale of 0 to 10 where 0 is no effect and 10 is complete control
[6] = Preemergence, Rate 500 g/ha, scale 0 (no effect) to 10 (complete control)
[7] = Rate 125 g/ha, Postemergence, scale 0 to 10, 0 no effect, 10 complete control
[8] = Rate 500 g/ha, Postemergence, scale 0 to 10, 0 no effect, 10 complete control
[9] = Rate 125 g/ha, Postemergence section (flood test species), scale 0 to 10, 0 no effect, 10 complete control
[10] = Rate 500 g/ha, listed under Postemergence (flood test species), scale 0 to 10, 0 no effect, 10 complete control
[11] = flood test, listed under Postemergence, Rate 250 g/ha, scale 0 to 10, 0 no effect, 10 complete control

Compound: Cc1ccccc1-n1c(=O)on(C(=O)N(c2ccc(F)c(F)c2)C(C)C)c1=O [Compound 48]
- Soybean plant response rating (soybean; [1]): 1
- Soybean plant response rating (soybean; [2]): 1
- Plant response rating, Soybean (soybean; [3]): 0
- Plant response rating, Soybean (soybean; [4]): 0
- Plant response rating, Soybean (soybean; [5]): 0
- Soybean plant response rating (soybean; [6]): 0
- Soybean plant response rating (soybean; [7]): 1
- Soybean plant response rating (soybean; [8]): 1
- Cocklebur plant response rating (cocklebur; [1]): 0
- Cocklebur plant response rating (cocklebur; [2]): 0
- Plant response rating, Cocklebur (cocklebur; [3]): 0
- Plant response rating, Cocklebur (cocklebur; [4]): 0
- Plant response rating, Cocklebur (cocklebur; [5]): 0
- Cocklebur plant response rating (cocklebur; [6]): 0
- Cocklebur plant response rating (cocklebur; [7]): 0
- Cocklebur plant response rating (cocklebur; [8]): 2
- Morningglory plant response rating (morningglory; [1]): 0
- Morningglory plant response rating (morningglory; [2]): 0
- Plant response rating, Morningglory (morningglory; [3]): 0
- Plant response rating, Morningglory (morningglory; [4]): 0
- Plant response rating, Morningglory (morningglory; [5]): 0
- Morningglory plant response rating (morningglory; [6]): 0
- Morningglory plant response rating (morningglory; [7]): 0
- Morningglory plant response rating (morningglory; [8]): 1
- Rice plant response rating (rice; [1]): 0
- Rice plant response rating (rice; [9]): 0
- Rice plant response rating (rice; [10]): 0
- Rice plant response rating (rice; [11]): 0
- Rape plant response rating (rape; [1]): 0
- Rape plant response rating (rape; [2]): 0
- Plant response rating, Rape (rape; [3]): 0
- Plant response rating, Rape (rape; [4]): 0
- Plant response rating, Rape (rape; [5]): 0
- Rape plant response rating (rape; [6]): 0
- Rape plant response rating (rape; [7]): 0
- Rape plant response rating (rape; [8]): 0
- Sugarbeets plant response rating (sugar beet; [1]): 0
- Sugarbeets plant response rating (sugar beet; [2]): 0
- Plant response rating, Sugarbeets (sugar beet; [3]): 0
- Plant response rating, Sugarbeets (sugar beet; [4]): 0
- Plant response rating, Sugarbeets (sugar beet; [5]): 0
- Sugarbeets plant response rating (sugar beet; [6]): 0
- Sugarbeets plant response rating (sugar beet; [7]): 0
- Sugarbeets plant response rating (sugar beet; [8]): 0
- Barnyardgrass plant response rating (bamyardgrass; [1]): 0
- Barnyardgrass plant response rating (bamyardgrass; [9]): 0
- Barnyardgrass plant response rating (bamyardgrass; [10]): 0
- Barnyardgrass plant response rating (bamyardgrass; [11]): 0
- Ducksalad plant response rating (duck salad; [1]): 0
- Ducksalad plant response rating (duck salad; [10]): 0
- Ducksalad plant response rating (duck salad; [11]): 0
- Crabgrass plant response rating (crabgrass; [1]): 0
- Crabgrass plant response rating (crabgrass; [2]): 3
- Plant response rating, Crabgrass (crabgrass; [3]): 1
- Plant response rating, Crabgrass (crabgrass; [4]): 6
- Plant response rating, Crabgrass (crabgrass; [5]): 7
- Crabgrass plant response rating (crabgrass; [6]): 7
- Crabgrass plant response rating (crabgrass; [7]): 1
- Crabgrass plant response rating (crabgrass; [8]): 8
- B. signalgrass plant response rating (surinam grass; [1]): 0
- B. signalgrass plant response rating (surinam grass; [2]): 0
- Plant response rating, B. signalgrass (surinam grass; [3]): 0
- Plant response rating, B. signalgrass (surinam grass; [4]): 0
- Plant response rating, B. signalgrass (surinam grass; [5]): 0
- B. signalgrass plant response rating (surinam grass; [6]): 0
- B. signalgrass plant response rating (surinam grass; [7]): 0
- B. signalgrass plant response rating (surinam grass; Rate 500 g/ha, Postemergence, scale of 0 to 10 where 0 is no effect and 10 is complete control): 0
- Wild oats plant response rating (wild oat; [1]): 0
- Wild oats plant response rating (wild oat; [2]): 0
- Plant response rating, Wild oats (wild oat; [4]): 0
- Plant response rating, Wild oats (wild oat; [5]): 2
- Wild oats plant response rating (wild oat; [6]): 2
- Wild oats plant response rating (wild oat; [7]): 0
- Wild oats plant response rating (wild oat; [8]): 0
- Redroot pigweed plant response rating (pigweed; [1]): 0
- Redroot pigweed plant response rating (pigweed; [2]): 0
- Plant response rating, Redroot pigweed (pigweed; [3]): 0
- Plant response rating, Redroot pigweed (pigweed; [4]): 0
- Plant response rating, Redroot pigweed (pigweed; [5]): 0
- Redroot pigweed plant response rating (pigweed; [6]): 0
- Redroot pigweed plant response rating (pigweed; [7]): 0
- Redroot pigweed plant response rating (pigweed; [8]): 0
- S. Flatsedge plant response rating (smallflower flatsedge; [1]): 0
- S. Flatsedge plant response rating (smallflower flatsedge; [9]): 0
- S. Flatsedge plant response rating (smallflower flatsedge; [10]): 0
- S. Flatsedge plant response rating (smallflower flatsedge; [11]): 0
- Bedstraw plant response rating (bedstraw; [1]): 0
- Bedstraw plant response rating (bedstraw; [2]): 0
- Plant response rating, Bedstraw (bedstraw; [3]): 0
- Plant response rating, Bedstraw (bedstraw; [4]): 0
- Plant response rating, Bedstraw (bedstraw; [5]): 0
- Bedstraw plant response rating (bedstraw; [6]): 0
- Bedstraw plant response rating (bedstraw; [7]): 0
- Velvetleaf plant response rating (velvetleaf; [1]): 0
- Velvetleaf plant response rating (velvetleaf; [2]): 0
- Plant response rating, Velvetleaf (velvetleaf; [3]): 0
- Plant response rating, Velvetleaf (velvetleaf; [4]): 0
- Plant response rating, Velvetleaf (velvetleaf; [5]): 0
- Velvetleaf plant response rating (velvetleaf; [6]): 0
- Velvetleaf plant response rating (velvetleaf; [7]): 0
- Velvetleaf plant response rating (velvetleaf; [8]): 0
- Corn plant response rating (corn; [1]): 0
- Corn plant response rating (corn; [2]): 0
- Plant response rating, Corn (corn; [3]): 0
- Plant response rating, Corn (corn; [4]): 0
- Plant response rating, Corn (corn; [5]): 0
- Corn plant response rating (corn; [6]): 0
- Corn plant response rating (corn; [7]): 0
- Corn plant response rating (corn; [8]): 0
